Measured values as given in patent US20260217705A1, “POLYMORPHS OF THE HYDROBROMIDE SALT OF LINAPRAZAN GLURATE” (CINCLUS PHARMA HOLDING AB (PUBL), priority 2023, published 2026).
“Also recorded” adds a separate entry of the source. Where two headings read alike, the source gives them in different places. Values belong to the compound of their own block, whether it stands above or below them.

What was measured:
[1] = cited from earlier work
[2] = cited from earlier work; remark: listed apart in the source
[3] = tested on: intragastric acidity; settings: cited from earlier work
[4] = Dynamic/gravimetric vapour sorption (DVS/GVS) hygroscopicity; assay type: physicochemical; settings: for hygroscopicity (in words): DVS/GVS at 25° C.
Method: Analyses were performed on an SMS DVS Advantage instrument. A few mg of the substance was added into an Al pan and exposed to stepwise RH changes according to 0-90-20% in steps of 10% RH, using open loop mode. The experiments were performed using a gas flow rate of 200 mL/min and at 25° C. The dm/dt criteria applied was 0.001 weight-%/min during a 5-minute window, with a maximum allowed time of 150 minutes and a minimum allowed time of 50 minutes for all steps except for the step at 0% RH, which had no criteria but was set to 6 h.
The hygroscopicity of Form A (as obtained from the synthesis described in Example 1), Form B (as obtained from a slurry in methanol/water 4:1) and Form C (as obtained from a slurry in ethanol) were investigated using GVS at 25° C. […] Form A can thus be classified as non-hygroscopic.
With a weight gain of about 3% at elevated humidities, it appears that a hydrate form is formed. Upon drying, Form B returned to the anhydrate; see FIGS. 12A and 12B, respectively.
Form C is thus classified as non-hygroscopic.

[5] = Thermogravimetric analysis (TGA) weight loss; assay type: physicochemical; settings: heating up to 175° C.
Method: Analyses were performed on a PerkinElmer TGA8000 instrument. A few mg of sample was gently charged into open Pt-pans and analysed by weight in a flow of dry nitrogen gas (40 mL/min), to ensure an inert atmosphere. The sample was scanned from 25 to 200° C. using a continuous scan speed of 10° C./min.
This confirms that Form A is an anhydrate.

[6] = clinical; settings: human, in vivo
Method: Linaprazan glurate is a prodrug of linaprazan, which was disclosed in WO 99/55706 and previously studied in Phase I and II studies. […] A clinical Phase I study has shown that administration of a single dose of linaprazan glurate can maintain the intragastric acidity above pH 4 for 24 hours. Linaprazan glurate is therefore tailored for patients with severe erosive gastroesophageal reflux disease (eGERD).
Whereas the plasma concentration of linaprazan glurate is only very low and difficult to determine, the plasma concentration of linaprazan may be determined instead. […] It is estimated that this requires a minimal plasma concentration (Cmin) of linaprazan of at least about 240 nmol/L after 22 hours. At such doses, a once daily oral administration of the formulation would be sufficient. In some embodiments, therefore, a single unit dose of a pharmaceutical composition of linaprazan glurate provides a Cmin of linaprazan in a human of at least about 240 nmol/L after 22 hours following oral administration of the pharmaceutical composition to said human. In other embodiments, a daily administration of two unit doses of a pharmaceutical composition of linaprazan glurate provides a Cmin of linaprazan in a human of at least about 240 nmol/L after 10 hours following oral administration of the last unit dose of the pharmaceutical composition to said human.

[7] = tested on: gastric acid; settings: Phase I and II studies; cited from earlier work
[8] = GVS at 25° C., humidity range of 0-90%

weight gain ([4]; GVS at 25° C., elevated humidities): about 3% | weight loss [5]: 0.3%
SMILES: Br.Cc1cccc(C)c1CNc1cc(C(=O)NCCOC(=O)CCCC(=O)O)cn2c(C)c(C)nc12 [Form B]
hygroscopicity (in words) [4]: significant water uptake with increasing humidity

water content ([4]; DVS, at 90% RH): not more than 0.05% | hygroscopicity (in words) [4]: non-hygroscopic; also recorded: very low | water uptake [4, 8]: about 0.05% | weight loss [5]: 0.2%
SMILES: Br.Cc1cccc(C)c1CNc1cc(C(=O)NCCOC(=O)CCCC(=O)O)cn2c(C)c(C)nc12 [Form C]

Second part, the compound before the results:

SMILES: Cc1cccc(C)c1CNc1cc(C(=O)NCCOC(=O)CCCC(=O)O)cn2c(C)c(C)nc12 [Form A of the free base]
solubility in water ([1]; pH 1): slightly soluble | solubility in water ([1]; pH 6.8): practically insoluble

SMILES: Cc1cccc(C)c1CNc1cc(C(=O)NCCOC(=O)CCCC(=O)O)cn2c(C)c(C)nc12 [linaprazan glurate, 5-{2-[({8-[(2,6-dimethylbenzyl)amino]-2,3-dimethylimidazo[1,2-a]pyridine-6-yl}carbonyl)-amino]ethoxy}-5-oxopentanoic acid]
plasma concentration ([2]; after absorption): only very low | half-life in the body ([2]; compared to linaprazan): longer half-life | metabolism after absorption into the blood stream ([2]; in vivo): quickly metabolized into linaprazan | control of gastric acid production ([3]; compared to linaprazan): total control of the gastric acid production for a longer time | time intragastric acidity maintained above pH 4 ([3]; single dose, Phase I): 24 hours

SMILES: Br.Cc1cccc(C)c1CNc1cc(C(=O)NCCOC(=O)CCCC(=O)O)cn2c(C)c(C)nc12 [Form A]
water uptake ([4]; DVS, at 80% RH): about 0.15% | hygroscopicity (in words) [4]: non-hygroscopic; also recorded: very low hygroscopicity | water uptake [4, 8]: ~0.22% | weight loss [5]: 0.3%

SMILES: Cc1cccc(C)c1CNc1cc(C(=O)NCCO)cn2c(C)c(C)nc12 [linaprazan]
concentration at 22 h [6]: ≥ 240 nM | duration of acid inhibition [7]: too short duration | elimination from the body [7]: quickly eliminated from the body | onset of action [7]: fast onset of action | tolerability [7]: well tolerated
